Experimental data from patent US20040126359A1, “Hedgehog” (priority 2001, published 2004).

What was measured:
CD4+ T-cells [1] = experiment: Taqman real time PCR of Shh, Ihh, HIP and Ptc expression in CD4+ T-cells (FIGS. 14, 15, 17); assay type: cell-based
Procedure: Expression in medium, in the presence of 50 ng/ml IL-10 and in the presence of 50 ng/ml IFN-γ was compared to expression in resting CD4+ T-cells;
Similar experiments were used to study the expression of Shh (FIG. 4) and Ptc (FIG. 5) in T-cells and the expression of components of the Hh signalling pathway in lymphoid tissues (FIG. 6). FIG. 14 illustrates the results of an RT-PCR analysis of Shh, Ihh, Hip and Ptc expression. Activation of T-cells induced a sustained and marked (approximately 80-fold) increase in Shh mRNA, peaking at 44 and 72 hours. It lead to a downregulation of Ptc.

[2] = system: mouse spleen cells and purified CD4+ T-cells; experiment: Survival in culture by Trypan blue staining; assay type: cell-based; conditions: no activation; Shh 10 and 100 ng/ml; 4 day time frame
Procedure: Survival was measured by Trypan blue staining of dead and alive cells in culture;
Cells cultured in medium without Shh were used as controls;

CD4+ T-cells [3] = experiment: Two-colour FACS analysis of CD69 and CD25 expression; assay type: cell-based; conditions: CD4+ T-cells activated 72 hours with anti-CD3 and anti-CD28, Shh 100 ng/ml
CD4+ T-cells [4] = experiment: T-cell proliferation assay (3H-TdR incorporation); assay type: cell-based, mouse
Procedure: Single cell suspensions from pooled C57BL/6 mouse spleens were applied to negative selection CD4^+ T-cell columns (R&D systems Europe Ltd, Abingdon, UK) as per manufacturers instructions. Purity was checked using FACS staining with an anti-CD4^FITC antibody and this ranged between 88-93%.
(§1) CD4^+ T-cells were cultured in RPMI 1640 medium (Life Technologies, Paisley, UK) supplemented with 10% FCS (Life Technologies), 2 mM L-glutamine, (Sigma, Dorset, UK), 20 μg/ml penicillin/streptomycin (Life Technologies) and […] 2-mercaptoethanol (Sigma). Anti-CD3/28 antibody activation was carried out at 2 concentrations, namely ‘sub-optimal’ (anti-CD3 at 0.25 μg/ml and anti-CD28 at 0.1 μg/ml) and ‘optimal’ (anti-CD3 at 1 μg/ml and anti-CD28 at 5 μg/ml). Tissue culture plates (Corning Inc., NY, USA) were coated with the anti-CD3 antibody for 90 min at 37° C. prior to addition of the CD4^+ T-cells. Recombinant mouse Shh amino-terminal peptide (R&D systems Europe Ltd, Abingdon, UK) was added into cultures at a concentration of 500 ng/ml. 5E1 antibody was used at either 20 μg/ml or 50 μg/ml and the isotype control was used at 20 μg/ml. The concentrations used were based on results of dose response curves (data not shown).
The CD4^+ T-cells were cultured as above in 96-well plates with and without addition of exogenous Shh or 5E1. They were pulsed after 48 hr of anti-CD3/28 activation with 20 μl of ^3H-TdR (50 μCi/ml) (Amersham), harvested at 72 hr and read on a betaplate scintillation counter (Wallac UK, Milton Keynes, UK).
Purified peripheral CD4^+ T-cells were cultured with and without the addition of the biologically active amino terminal Shh peptide. An initial titration curve established that 500 ng/ml was the optimal dose of the Shh peptide to enhance proliferation of peripheral CD4^+ T-cells (data not shown), and this concentration was used in all subsequent experiments. Shh was added to CD4^+ T-cells that were resting, maximally stimulated with anti-CD3 (1 μg/ml) and anti-CD28 (5 μg/ml) antibodies or sub-optimally activated with anti-CD3 (0.25 μg/ml) and anti-CD28 (0.1 μg/ml).

CD4+ T-cells [5] = experiment: Cell cycle analysis (propidium iodide, Vindelov method); assay type: cell-based, mouse
Procedure: as §1
(§2) The CD4^+ T-cells were cultured as above in 48-well plates with and without addition of exogenous Shh or 5E1. At 72 hr post-activation, the cells were spun at 13,000 rpm for 7 min then re-suspended in citrate buffer. Cell cycle analysis was carried out using the Vindelov method (Vindelov et al, 1990). Briefly, the cells were trypsinized (Sigma) to expose the nucleus before being stained with propidium iodide (Sigma). Cell cycle analysis was then performed on an Epics© XL flow cytometer (Beckman Coulter UK Ltd, Bucks, UK). The machine counted 30,000 nuclei in each sample and the software analysed the % of cells in each stage of the cell cycle sub-G1, G1, S phase and G2/M. From these figures, the % of live cells (G1, S and G2/M) was calculated, and from this, the % of live cells in G1 and S/G2 phases.
The effect of Shh on CD4^+ T-cell proliferation was investigated further using cell cycle analysis to allow us to examine if Shh affected cell survival or promoted entry in the S/G2 proliferative phase of the cell cycle. As with the ^3H-TdR incorporation studies, this analysis was carried out on resting CD4^+ T-cells and those optimally and sub-optimally activated. Exogenous Shh was added at the time of (t=0) or 24 hr before (t=−24 hr) anti-CD3/28 antibody activation and the T-cells were analysed 72 hr later. In the case of resting CD4^+ T-cells, Shh peptide was added at t=0, and the cells were analysed at 24 hr, 48 hr and 72 hrs. The % cells distributed in sub-G1, G1, S and G2 phases of the cell cycle was analysed, and from this the % live cells in G1 and S/G2 phases was calculated.

human CD4 T-cells = experiment: Proliferation of human CD4 T-cells cultured with Shh N-terminal active peptide (3H thymidine); assay type: cell-based; conditions: activated CD4+ T-cells; dose dependent
human CD8 T-cells = experiment: Proliferation of human CD8 T-cells cultured with Shh N-terminal active peptide (3H thymidine); assay type: cell-based; conditions: activated CD8+ T-cells; dose dependent
Gli2-/Gli3- mice cells = experiment: Cell cycle / survival analysis in Gli2-/Gli3- mice cells; assay type: cell-based, mouse; conditions: Shh 10 and 500 ng/ml
Procedure: Cell survival was measured in Gli2^−/Gli3^− mice cells (i.e. from mice in which one allele each of Gli2 and Gli3 were deleted from the genome) in the presence (10 ng/ml and 500 ng/ml) and absence of Shh;
as §2

[6] = Shh added to activated T-cell cultures
[7] = optimally activated, Shh 24 hr prior to activation
[8] = sub-optimally activated, Shh peptide at t=0

Shh peptide: Recombinant mouse Shh amino-terminal peptide (R&D systems); biologically active N-terminal Sonic hedgehog fragment
Hip expression (CD4+ T-cells [1]; [6]): up-regulated
Ihh expression (CD4+ T-cells [1]; [6]): down-
effect on Ptc downregulation (CD4+ T-cells [1]; activated T-cells, Shh addition): does not appear to affect
Shh mRNA expression (CD4+ T-cells [1]; activated T-cells, Shh addition, 24 hours, 40 cycles of PCR (limit of assay)): no signal is detected
survival in culture [2]: enhances their survival
CD25 expression in CD3 positive T-cells (CD4+ T-cells [3]; activated only 31.64%): 80.46%
CD69 expression in CD3 positive T-cells (CD4+ T-cells [3]; activated only 33.87%): 70.57%
optimal dose to enhance proliferation of peripheral CD4+ T-cells (CD4+ T-cells [4]; initial titration curve (data not shown)): 500 ng/mL
level of proliferation (3H-TdR incorporation) (CD4+ T-cells [4]; maximally stimulated (anti-CD3 1 μg/ml, anti-CD28 5 μg/ml), Shh peptide 500 ng/ml added at t=-24 hr or t=0): no significant difference
degree of proliferation (CD4+ T-cells [4]; resting CD4+ T-cells, Shh peptide 500 ng/ml): No significant difference
increase in proliferation, range (CD4+ T-cells [4]; sub-optimal activation, Shh peptide 500 ng/ml 24 hr prior to activation): 16-63%
increase in proliferation, mean (CD4+ T-cells [4]; sub-optimal activation, Shh peptide 500 ng/ml 24 hr prior to activation, n=3, p<0.04): 46%
increase in CD4+ T-cell proliferation, mean (CD4+ T-cells [4]; sub-optimal activation, Shh peptide 500 ng/ml at t=0, 72 hr, p<0.01): 101.6%
increase in CD4+ T-cell proliferation, range (CD4+ T-cells [4]; sub-optimal anti-CD3 0.25 μg/ml, anti-CD28 0.1 μg/ml, Shh peptide 500 ng/ml at t=0, 72 hr): 76.2-128%
effect on cell cycle progression, direct addition on its own (CD4+ T-cells [5]; FIG. 13, Shh 10 and 500 ng/ml, relative to the anti-Shh effect): slight effect in the opposite direction
% increase in live cells in S/G2 phase, range (CD4+ T-cells [5]; optimally activated (anti-CD3 1 μg/ml, anti-CD28 5 μg/ml), Shh at t=0, 72 hr): 9%-144%
% of live cells with and without Shh (CD4+ T-cells [5]; [7]): very similar
increase in cells in S/G2 phase, range (CD4+ T-cells [5]; [7]): 53.1%-97.1%
increase in cells in S/G2 phase, mean (CD4+ T-cells [5]; optimally activated, Shh 24 hr prior to activation, n=3, p<0.01): 71.5%
% of live cells with and without Shh (CD4+ T-cells [5]; optimally activated, Shh at t=0): very similar
% increase in live cells in S/G2 phase, mean (CD4+ T-cells [5]; optimally activated, Shh at t=0, n=3, not statistically significant): 63.7%
difference in % of cells in S/G2 phase (CD4+ T-cells [5]; resting CD4+ T-cells, Shh 500 ng/ml): negligible
effect on cell survival (CD4+ T-cells [5]; resting CD4+ T-cells, Shh 500 ng/ml, 24, 48, 72 hr): minimal effects
increase in % of live cells entering S/G2 phase, range (CD4+ T-cells [5]; sub-optimally activated, Shh peptide 24 hr prior to activation): 34.6%-110%
increase in % of live cells entering S/G2 phase, mean (CD4+ T-cells [5]; sub-optimally activated, Shh peptide 24 hr prior to activation, n=3, p<0.03): 61.5%
% of live CD4+ T-cells (CD4+ T-cells [5]; sub-optimally activated, Shh peptide 24 hr prior to activation, p<0.02): increase
% increase in live cells in S/G2 phase, range (CD4+ T-cells [5]; [8]): 27.8%-77.8%
% live cells with and without Shh (CD4+ T-cells [5]; [8]): similar
% increase in live cells in S/G2 phase, mean (CD4+ T-cells [5]; sub-optimally activated, Shh peptide at t=0, n=3, p<0.02): 55.8%
incorporation of 3H-thymidine (human CD4 T-cells): significantly enhances
incorporation of 3H-thymidine (human CD8 T-cells): significantly enhances
effect on survival / apoptosis (live cells, sub-G1 pool) (Gli2-/Gli3- mice cells): promotes apoptosis
